From patent publication US20240060949A1, “BIOSYSTEMS TO DETECT CHEMICAL CONTAMINANTS” (priority 2020, published 2024)
Like-named read-outs stand apart in the source and are kept apart here.

Key:
CYP1A2 and CYP2C19 = assay type: biochemical
Protocol: The bioassay was performed in a 96-well plate. 80 μL of sample is added to wells in triplicate. […] After the preparation, 10 μL of enzyme mixture were added to each plate. After incubating at room temperature 10 μL of substrate mixture (5 μM of substrate EOMCC and 30 μM Vivid® NADP^+ diluted in working buffer) was added. The plate was incubated 30 minutes at 30° C. and when time passed, fluorescence signal was measured with a fluorometric reader, 410 nm and 460 nm were the excitation and emission wavelengths, respectively. A blank sample, buffer solution, was measured at the same time and the reduction of the signal, inhibition of enzyme activity, was calculated and associated with the presence of contaminants.

CYP3A4 [1] = target: T1, CYP3A4 (Homo sapiens, UniProt P08684); assay type: biochemical; settings: CYP3A4, DBF substrate; concentration providing 20% inhibition (IC20)
Protocol: (§1) The bioassay was performed in a 96-well plate. 50 μL of a solution containing PAHs or BFRs is added to wells in triplicate. […] After incubating at room temperature 10 μL of substrate mixture (5 μM of substrate (EOMCC for CYP1A2, BOMCC for CYP2B6 or DBF for CYP3A4) and 30 μM Vivid® NADP^+ diluted in working buffer) was added. The plate was incubated 30 minutes at 25° C. and when time passed, fluorescence signal was measured with a fluorometric reader, 410/490 nm and 460/520 nm were the excitation and emission wavelengths, respectively. A blank sample, buffer solution, was measured at the same time and the reduction of the signal, inhibition of enzyme activity, was calculated and associated with the presence of contaminants.

CYP3A4 [2] = target: T1, CYP3A4; assay type: biochemical; settings: for Inhibition percentage I (%): lateral flow reader; for Limit of detection: CYP3A4 lateral flow, concentration providing 20% of inhibition, estimated
Protocol: The metabolism of two different fluorescent substrates was used to determine the percent of inhibition of CYP3A4 as response to the contaminant concentrations. The enzymatic reactions were carried out in 96-well plates adding 80 μL of potassium phosphate buffer (100 mM, pH 8.0) or 100 ng/mL of standard solutions in duplicates. Both brominated compounds were prepared in potassium phosphate buffer (100 mM, pH 8.0) and tested as inhibitors of CYP3A4 activity. […] Subsequently, 10 μL of enzyme mixture were added to each well, homogenised and allowed to pre-incubate during 10 minutes at room temperature. Two different substrate mixtures were used in combination with brominated molecules. To evaluate the inhibition promoted by BDE-100, 10 μL of a substrate mixture containing 2 μM of DBF and 30 μM Vivid® NADP+ in potassium phosphate buffer (100 mM, pH8.0), were added to the appropriated wells. The inhibitory effect of HBCD concentration was tested for a substrate mixture, containing 2 μM of DBOMF and 30 μM Vivid® NADP+ prepared in potassium phosphate buffer (100 mM, pH8.0), from which 10 μL were added to the appropriated wells. After the addition of the respective substrate probes, the plate was newly incubated at 25° C. for 60 minutes. The resulting reaction broths were diluted 10 and 20 times in buffer, for respectively DBF and BDE-100, and for DBOMF and HBCD reactions. Finally, 1.5 μL of diluted broths were pipetted as a line onto nitrocellulose membranes and the fluorometric measurements carried out at a lateral flow reader (ESEQuant LR3, QIAGEN) with a fluorometric channel of 470 nm and 520 nm as excitation and emission wavelengths, respectively. A blank sample, buffer solution, was measured at the same time and the reduction of the signal, inhibition of enzyme activity, was calculated and associated with the presence of each BDE, as shown in Table 5.
Considering the signal intensity developed for different levels of the contaminant molecules, the concentration providing 20% of inhibition was selected as limit of detection, estimated to be 36 ng/mL and 14 ng/mL for BDE-100 and HBCD, respectively.

CYP2B10 = CYP2B10 (Mus musculus, UniProt P12791); settings: CYP2B10, 3 μM BOMCC; concentration that induces 20% inhibition (Table 8)
CYP3A4 [3] = target: T1, CYP3A4; settings: pH 8
CYP2B6 [4] = target: T2, CYP2B6 (Homo sapiens, UniProt P20813); settings: pH 7.4
CYP2B6 [5] = target: T2, CYP2B6; assay type: biochemical
Protocol: as §1

CYP3A4 [6] = target: T1, CYP3A4; assay type: biochemical; settings: CYP3A4 electrochemical biosensor, 50 μM progesterone, estimated
Protocol: The working electrodes (WE) of screen-printed carbon electrodes (SPCE) (C110, from Methrom-Dropsens), were modified with 3 μL suspension of 1 mg/mL of single-walled carbon nanotubes. After chloroform evaporation, 5 μL of a 0.08 nmol/mL solution of CYP3A4 (recombinant, expressed in E. Coli from Sigma-Aldrich) was deposited onto the modified WE surface and incubated overnight at 4° C. 100 mM of potassium phosphate buffer saline (PBS) at pH 8.0, containing 50 mM of potassium chloride, was used to prepare the standards, as well as a supporting electrolyte for the electrochemical measurements. Aliquots (60 μL) of 50 μM progesterone solutions containing 0, 50, 100, 200 and 300 ng/mL of HBCD, were placed onto the working area of the SPCE by drop-casting, incubated for 2 minutes at room temperature and the electrochemical measurements performed. For each sample, one cyclic voltammetric scan was carried out, sweeping the potential from −0.75 V to 0.30 V at 0.02 V/s. The peak height of the cathodic peaks generated near to −0.55 V was registered and HBCD presence, calculated using as reference the peak of the blank assay (buffer solution). The electrochemical signal registered at CYP3A4-based biosensor, respond to the concentration of HBCD, allowing to establish the I (%) values for different concentrations of this compound (FIG. 1). Limit of detection was estimated to be 42.8 ng/mL for HBCD.

[7] = CYP2B6, BOMCC substrate, concentration providing 20% inhibition (IC20)

T2 sequence (P20813 whole entry): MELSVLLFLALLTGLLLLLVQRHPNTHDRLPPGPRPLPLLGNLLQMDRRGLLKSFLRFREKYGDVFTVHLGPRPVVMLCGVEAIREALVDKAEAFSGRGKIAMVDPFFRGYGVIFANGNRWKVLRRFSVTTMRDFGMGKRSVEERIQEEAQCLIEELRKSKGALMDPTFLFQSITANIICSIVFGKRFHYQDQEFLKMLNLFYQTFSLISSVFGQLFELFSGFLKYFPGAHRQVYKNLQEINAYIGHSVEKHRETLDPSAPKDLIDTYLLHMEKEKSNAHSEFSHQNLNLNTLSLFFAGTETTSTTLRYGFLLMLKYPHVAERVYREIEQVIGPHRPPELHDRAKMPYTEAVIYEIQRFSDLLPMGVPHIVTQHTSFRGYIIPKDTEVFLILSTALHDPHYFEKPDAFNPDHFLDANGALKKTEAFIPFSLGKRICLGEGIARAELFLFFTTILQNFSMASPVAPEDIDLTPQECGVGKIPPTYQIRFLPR
T1 sequence (P08684 whole entry): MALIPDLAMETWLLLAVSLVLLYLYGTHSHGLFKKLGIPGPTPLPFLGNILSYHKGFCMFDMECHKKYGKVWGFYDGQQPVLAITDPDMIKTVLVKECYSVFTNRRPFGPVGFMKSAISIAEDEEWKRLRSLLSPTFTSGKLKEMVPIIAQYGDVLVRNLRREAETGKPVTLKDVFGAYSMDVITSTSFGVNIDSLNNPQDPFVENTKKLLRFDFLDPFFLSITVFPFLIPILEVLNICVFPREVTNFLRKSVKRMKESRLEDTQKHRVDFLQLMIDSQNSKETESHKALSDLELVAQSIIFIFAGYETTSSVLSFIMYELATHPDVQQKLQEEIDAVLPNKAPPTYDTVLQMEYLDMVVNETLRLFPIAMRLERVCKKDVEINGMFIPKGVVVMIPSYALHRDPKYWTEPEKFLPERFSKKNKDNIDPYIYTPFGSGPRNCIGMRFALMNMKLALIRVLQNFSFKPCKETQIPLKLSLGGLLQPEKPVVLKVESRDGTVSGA
Chain of CYP2B10 (P12791 whole entry): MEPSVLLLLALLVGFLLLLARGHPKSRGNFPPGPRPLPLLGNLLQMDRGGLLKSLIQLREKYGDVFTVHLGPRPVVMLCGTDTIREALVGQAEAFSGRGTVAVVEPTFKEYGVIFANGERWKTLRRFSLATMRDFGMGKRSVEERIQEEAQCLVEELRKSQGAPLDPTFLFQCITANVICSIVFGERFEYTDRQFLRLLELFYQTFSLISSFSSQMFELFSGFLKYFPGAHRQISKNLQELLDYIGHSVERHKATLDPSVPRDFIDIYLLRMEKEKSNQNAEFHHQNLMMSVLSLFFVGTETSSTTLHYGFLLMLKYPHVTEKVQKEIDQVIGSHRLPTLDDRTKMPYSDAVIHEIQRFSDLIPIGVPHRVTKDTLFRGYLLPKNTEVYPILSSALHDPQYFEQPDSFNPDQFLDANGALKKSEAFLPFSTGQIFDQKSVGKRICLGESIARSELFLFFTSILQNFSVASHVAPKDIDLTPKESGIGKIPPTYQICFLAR

13,19-didesmethyl C spirolide
Limit of detection (CYP1A2 and CYP2C19): 10 µg/L

C=C(C[C@@]12C[C@@H](C)C[C@H](O1)[C@H]1O[C@]3(C[C@H]1O2)NC[C@H](C)C[C@@H]3C)[C@H]1O[C@@](O)([C@@H](O)[C@@H]2C[C@H]3O[C@@]4(CC[C@]5(CC=C[C@@H](/C=C/CCC(=O)O)O5)O4)[C@H](C)C[C@H]3O2)[C@H](C)C[C@@H]1C [Azaspiracid-1]
Limit of detection (CYP1A2 and CYP2C19; CYP1A2 and CYP2C19, 5 μM EOMCC, concentration that induces 20% inhibition): 3 µg/L

Brc1ccc(Oc2ccc(Br)cc2Br)cc1 [BDE-28, 2,4,4′-Tribromodiphenyl ether]
Limits of detection (CYP3A4 [1]): 100 ng/mL

Brc1ccc(Oc2ccc(Br)cc2Br)c(Br)c1 [BDE-47, 2,2′,4,4′-Tetrabromodiphenyl ether]
Limits of detection (CYP3A4 [1]): 5 ng/mL

Brc1ccc(Oc2cc(Br)c(Br)cc2Br)c(Br)c1 [BDE-99, 2,2′,4,4′,5-Pentabromodiphenyl ether]
Limits of detection (CYP3A4 [1]): 100 ng/mL

Brc1ccc(Oc2c(Br)cc(Br)cc2Br)c(Br)c1 [BDE-100, 2,2′,4,4′,6-Pentabromodiphenyl ether]
Inhibition percentage I (%) (CYP3A4 [2]; CYP3A4, 2 μM DBF, 100 ng/ml contaminant): 55.4% | Limit of detection (CYP3A4 [2]; DBF substrate): 36 ng/mL | Limits of detection (CYP3A4 [1]): 5 ng/mL

Brc1cc(Br)c(Oc2cc(Br)c(Br)cc2Br)cc1Br [BDE-153, 2,2′,4,4′,5,5′-Hexabromodiphenyl ether]
Limits of detection (CYP3A4 [1]): 5 ng/mL

Brc1cc(Br)c(Oc2cc(Br)c(Br)cc2Br)c(Br)c1 [BDE-154, 2,2′,4,4′,5,6′-Hexabromodiphenyl ether]
Limits of detection (CYP3A4 [1]): 5 ng/mL

Brc1c(Br)c(Br)c(Oc2c(Br)c(Br)c(Br)c(Br)c2Br)c(Br)c1Br [BDE-209, Decabromodiphenyl ether]
Limits of detection (CYP3A4 [1]): 10 ng/mL

[CH3][Hg][Cl] [Methylmercury]
Limits of detection CYP2B10 (CYP2B10): 44.3 ng/mL

N[C@@H](CCC(=O)O)C(=O)[O-].[Na+] [Monosodium glutamate]
Limits of detection CYP3A4 (CYP3A4 [3]): 3.6 mg/mL

O=C([O-])c1ccccc1.[Na+] [Sodium Benzoate]
Limits of detection CYP2B10 (CYP2B10): 3.2e+06 ng/mL

O=NO [Sodium Nitrite]
Limits of detection CYP2B6 (CYP2B6 [4]): 2.3 mg/mL

C=CCC(=C)/C=C/[C@@](C)(O)[C@H]1O[C@@H]2C[C@@H]3O[C@@H]4C[C@@H]5O[C@@H]6C[C@@H]7O[C@@H]8C[C@@H]9O[C@@H]%10C[C@@H]%11O[C@](C)(CCOS(=O)(=O)O)[C@@H](OS(=O)(=O)O)C[C@H]%11O[C@H]%10C[C@H]9O[C@H]8CC[C@@]7(C)O[C@@]6(C)CC[C@H](C)[C@H]5O[C@H]4C[C@@]3(C)O[C@H]2CC1=C [Yessotoxin]
Limit of detection (CYP1A2 and CYP2C19; human): 45 µg/L

c1ccc2cc3c(ccc4ccccc43)cc2c1 [benz(a)anthracene (BaA), benz(a)anthracene]
Limit of detection (CYP2B6 [5]; human): 5 µg/L

c1ccc2c(c1)cc1ccc3cccc4ccc2c1c34 [benzo(a)pyrene (BaP), benzo(a)pyrene]
Limit of detection (CYP2B6 [5]; [7]): 15 µg/L

c1ccc2c(c1)-c1cccc3c1c-2cc1ccccc13 [benzo(b)fluoranthene (BbF), benzo(b)fluoranthene]
Limit of detection (CYP2B6 [5]; [7]): 20 µg/L

c1ccc2c(c1)ccc1c3ccccc3ccc21 [chrysene (Chrys), chrysene]
Limit of detection (CYP2B6 [5]; [7]): 10 µg/L

Hexabromocyclododecane [HBCD]
Limit of detection (CYP3A4 [6]): 42.8 ng/mL | Inhibition percentage I (%) (CYP3A4 [2]; CYP3A4, 2 μM DBOMF, 50 ng/mL contaminant): 69.8% | Inhibition percentage I (%) (CYP3A4 [2]; CYP3A4, 2 μM DBOMF, 100 ng/mL contaminant): 84.3% | Limit of detection (CYP3A4 [2]; DBOMF substrate): 14 ng/mL
